From patent publication US20160002247A1, “8-SUBSTITUTED IMIDAZOPYRIMIDINONE DERIVATIVE HAVING AUTOTAXIN INHIBITORY ACTIVITY” (THE UNIVERSITY OF TOKYO, priority 2013, published 2016)

Biological target: T1, Human autotaxin enzyme (Homo sapiens, UniProt Q13822)
T1 construct: purchased R&D System
Test: Evaluation of autotaxin inhibitor, Method B (Test Example 2): TG-mTMP fluorescence
Format: biochemical
Conditions: Assay Method B (Test Example 2), human autotaxin; read-out: Inhibitory Activity (autotaxin enzyme inhibitory activity, IC50 class)
How it was run: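 Human autotaxin in Tris-HCl pH 7.5 buffer with NaCl, MgCl2 and 0.1% BSA was reacted with TG-mTMP (0.5 μM solution added) and test compound for 2 hours at room temperature.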

Row | IC50 [nM] | Structure (SMILES)
1 | < 10 | N#CCCCCn1c(NCc2ccc(C(=O)O)cc2)cc(=O)n2cc(-c3ccc(Cl)cc3)nc12 [Compound 286]
2 | 10 to 100 | CCCCCn1c(NCCC)cc(=O)n2cc(-c3ccc(Cl)cc3)nc12 [Compound 188]
3 | 10 to 100 | CCCCCn1c(N2CCCC2C)cc(=O)n2cc(-c3ccc(Cl)cc3)nc12 (stereo not shown) [Compound 259]
4 | < 10 | CCCCCn1c(N(C)Cc2ccc(C(=O)OC)cc2)cc(=O)n2cc(-c3ccc(Cl)cc3)nc12 [Compound 195]
5 | < 10 | N#Cc1ccc(-c2cn3c(=O)cc(N4CCC(C(=O)O)CC4)n(CCCC(F)(F)F)c3n2)cc1 [Compound 285]
6 | < 10 | O=C(O)c1ccc(CNc2cc(=O)n3cc(-c4ccc(Cl)cc4)nc3n2CCCC(F)(F)F)cc1 [Compound 287]
7 | 10 to 100 | CCCCCn1c(-c2cscn2)cc(=O)n2cc(-c3ccc(Cl)cc3)nc12 [Compound 418]
8 | 100 to 1000 | CCCCCn1c(C)c(CCO)c(=O)n2cc(-c3cccc(Cl)c3)nc12 [Compound 213]
9 | 10 to 100 | C/C=C/c1cc(=O)n2cc(-c3ccc(Cl)cc3)nc2n1CCCCC [Compound 414]
10 | 10 to 100 | CCCCCn1c(C)c(Cc2ccccc2)c(=O)n2cc(-c3ccc(Cl)cc3)nc12 [Compound 203]
11 | 10 to 100 | CCCCCn1c(NCCc2ccccc2)cc(=O)n2cc(-c3ccc(Cl)cc3)nc12 [Compound 251]
12 | < 10 | CCCCCn1c(C)c(CCOCC)c(=O)n2cc(-c3ccc(Cl)cc3)nc12 [Compound 214]
13 | 100 to 1000 | CCCCCOC(=O)CCc1c(C)n(CCCCC)c2nc(-c3ccc(Cl)cc3)cn2c1=O [Compound 217]
14 | < 10 | N#CCCCCn1c(-c2ccc(C(=O)NCCN3CCOCC3)cc2)cc(=O)n2cc(-c3ccc(Cl)cc3)nc12 [Compound 380]
15 | 10 to 100 | CCCCCn1c(NCCN(C)C)cc(=O)n2cc(-c3ccc(Cl)cc3)nc12 [Compound 235]
16 | > 1000 | C#CCCCCCCCCCOc1cc(=O)n2cc(-c3ccc(Cl)cc3)nc2n1CCCCC [Compound 271]
17 | < 10 | CCCCCn1c(-c2ccc(C(=O)NCCN3CCOCC3)cc2)cc(=O)n2cc(-c3ccc(Cl)cc3)nc12 [Compound 374]
18 | < 10 | CCCCCn1c(-c2ccc(F)cc2)cc(=O)n2cc(-c3ccc(Cl)cc3)nc12 [Compound 368]
19 | < 10 | CCCCCn1c(CO)cc(=O)n2cc(-c3ccc(Cl)cc3)nc12 [Compound 367]
20 | 10 to 100 | CCCCCn1c(N2CCN(c3cc(F)cc(F)c3)CC2)cc(=O)n2cc(-c3ccc(Cl)cc3)nc12 [Compound 245]
21 | < 10 | N#CCCCCn1c(-c2ccc(C(=O)NCCN3CCOCC3)cc2)cc(=O)n2cc(-c3ccc(C#N)cc3)nc12 [Compound 386]

Row | IC50 [nM] | Structure (SMILES)
22 | < 10 | CCCCCn1c(-c2ccc(NCC(C)C)nc2)cc(=O)n2cc(-c3ccc(Cl)cc3)nc12 [Compound 419]
23 | > 1000 | CCCCCn1c(C)c(Cc2ccccc2)c(=O)n2cc(-c3cccc(Cl)c3)nc12 [Compound 211]
24 | > 1000 | CCCCCn1c(C)c(C#N)c(=O)n2cc(-c3ccc(Cl)cc3)nc12 [Compound 184]
25 | 100 to 1000 | CCCCCn1c(OC(C)c2ccccc2)cc(=O)n2cc(-c3ccc(Cl)cc3)nc12 (stereo not shown) [Compound 261]
26 | 10 to 100 | CCCCCn1c(NCc2ccc(N(C)C)cc2)cc(=O)n2cc(-c3ccc(Cl)cc3)nc12 [Compound 237]
27 | 100 to 1000 | CCCCCn1c(OC(CC(C)C)CC(C)C)cc(=O)n2cc(-c3ccc(Cl)cc3)nc12 [Compound 262]
28 | 10 to 100 | CCCCCn1c(OC(C)C)cc(=O)n2cc(-c3ccc(Cl)cc3)nc12 [Compound 272]
29 | 10 to 100 | CCCCCn1c(OCCC)cc(=O)n2cc(-c3ccc(Cl)cc3)nc12 [Compound 189]
30 | < 10 | CCCCCn1c(-c2cnc(N)cn2)cc(=O)n2cc(-c3ccc(Cl)cc3)nc12 [Compound 424]
31 | 10 to 100 | CCCCCn1c(-c2ccccc2)cc(=O)n2cc(-c3ccc(Cl)cc3)nc12 [Compound 366]
32 | < 10 | CCCCCn1c(N2CCN(CCCOC)CC2)cc(=O)n2cc(-c3ccc(Cl)cc3)nc12 [Compound 243]
33 | 10 to 100 | CCCCCn1c(-c2cc3ccccc3s2)cc(=O)n2cc(-c3ccc(Cl)cc3)nc12 [Compound 393]
34 | 10 to 100 | CCCCCn1c(OC2CCCC2)cc(=O)n2cc(-c3ccc(Cl)cc3)nc12 [Compound 260]
35 | 100 to 1000 | CCCCCn1c(Oc2cccnc2)cc(=O)n2cc(-c3ccc(Cl)cc3)nc12 [Compound 264]
36 | 10 to 100 | CCCCCn1c(NC)cc(=O)n2cc(-c3ccc(Cl)cc3)nc12 [Compound 248]
37 | < 10 | CCCCCn1c(-c2ccc(N3CCN(C)CC3)cc2)cc(=O)n2cc(-c3ccc(Cl)cc3)nc12 [Compound 416]
38 | < 10 | CCCCCn1c(-c2ccc(C#N)cc2)cc(=O)n2cc(-c3ccc(Cl)cc3)nc12 [Compound 400]
39 | 100 to 1000 | CCCCCn1c(OC(C)(C)C)cc(=O)n2cc(-c3ccc(Cl)cc3)nc12 [Compound 270]
40 | 10 to 100 | CCCCCn1c(NC2CCCC2)cc(=O)n2cc(-c3ccc(Cl)cc3)nc12 [Compound 224]
41 | < 10 | N#Cc1ccc(-c2cn3c(=O)cc(-c4ccc(C(=O)NCCN5CCOCC5)cc4)n(CCCC(F)(F)F)c3n2)cc1 [Compound 389]

Continued, compound first:

Row | Structure (SMILES) | IC50 [nM]
42 | CCCCCn1c(C)cc(=O)n2c(CN)c(-c3ccc(Cl)cc3)nc12 [Compound 172] | > 1000
43 | CCCCCn1c(C)cc(=O)n2c(CO)c(-c3ccc(Cl)cc3)nc12 [Compound 168, 2-(4-chlorophenyl)-3-hydroxymethyl-7-methyl-8-pentylimidazo[1,2-a]pyrimidin-5(8H)-one] | 100 to 1000
44 | CCCCCn1c(C)cc(=O)n2cc(-c3coc4ccccc34)nc12 [Compound 140] | 100 to 1000
45 | Cc1cc(=O)n2cc(-c3ccc(Cl)cc3)nc2n1CC1CCOC1 (stereo not shown) [Compound 118] | 100 to 1000
46 | Cc1cc(=O)n2cc(-c3ccc(Cl)cc3)nc2n1CC1CCCO1 (stereo not shown) [Compound 107] | 100 to 1000
47 | Cc1cc(=O)n2cc(-c3ccc(Cl)cc3)nc2n1Cc1ccc(COc2ccccc2)cc1 [Compound 120] | > 1000
48 | CCCCCn1c(C)cc(=O)n2cc(-c3ccccc3)nc12 [Compound 138] | 100 to 1000
49 | CCCCCn1c(C)cc(=O)n2c(C)c(-c3ccc(Cl)cc3)nc12 [Compound 170] | 10 to 100
50 | Cc1cc(=O)n2cc(-c3ccc(Cl)cc3)nc2n1Cc1cccnc1 [Compound 117] | 10 to 100
51 | CCCCCn1c(C)cc(=O)n2cc(-c3cccc(Cl)c3)nc12 [Compound 147] | > 1000
52 | Cc1cc(=O)n2cc(-c3ccc(Cl)cc3)nc2n1Cc1ccc(S(C)(=O)=O)cc1 [Compound 105] | 10 to 100
53 | CCCCCn1c(C)cc(=O)n2cc(-c3ccc(C(F)(F)F)cc3)nc12 [Compound 161] | < 10
54 | CCCCCn1c(C)c(C#CCO)c(=O)n2cc(-c3ccc(Cl)cc3)nc12 [Compound 183] | 10 to 100
55 | Cc1cc(=O)n2cc(-c3ccc(Cl)cc3)nc2n1Cc1ccc2ccccc2c1 [Compound 102] | 100 to 1000
56 | CCCCCn1c(C)cc(=O)n2cc(-c3ccc(N(CC)CC)cc3)nc12 [Compound 159] | > 1000
57 | CCCCCn1c(C)cc(=O)n2cc(C3CCCCC3)nc12 [Compound 139] | 100 to 1000
58 | Cc1cc(=O)n2cc(-c3ccc(Cl)cc3)nc2n1C(C)c1cccc(C(F)(F)F)c1 (stereo not shown) [Compound 108] | 10 to 100
59 | Cc1cc(=O)n2cc(-c3ccc(Cl)cc3)nc2n1Cc1ccc(C(N)=O)cc1 [Compound 110] | 10 to 100
60 | CCCCCn1c(C)cc(=O)n2cc(-c3ccc(OC(F)(F)F)cc3)nc12 [Compound 156] | < 10
61 | Cc1cc(=O)n2cc(-c3ccc(Cl)cc3)nc2n1Cc1ccc(C(=O)c2ccccc2)cc1 [Compound 111] | 100 to 1000
62 | CCCCCn1c(C)cc(=O)n2cc(-c3ccsc3)nc12 [Compound 144] | 100 to 1000
63 | CCCCCn1c(C)cc(=O)n2c(CN(C)C)c(-c3ccc(Cl)cc3)nc12 [Compound 173] | > 1000

Same assay, conditions: Assay Method: Method B (Test Example 2); read-out: Inhibitory Activity (Enzyme Inhibitory Activity, IC50)

Row | IC50 [nM] | Structure (SMILES)
64 | 100 to 1000 | Cc1cc(=O)n2cc(-c3ccc(Cl)cc3)nc2n1CCC(F)(F)F [Compound 65]
65 | 10 to 100 | CC(=O)OCCn1c(C)cc(=O)n2cc(-c3ccc(Cl)cc3)nc12 [Compound 29]
66 | 10 to 100 | Cc1cc(=O)n2cc(-c3ccc(Cl)cc3)nc2n1CCc1ccccc1 [Compound 82]
67 | 10 to 100 | C=CCCCn1c(C)cc(=O)n2cc(-c3ccc(Cl)cc3)nc12 [Compound 43]
68 | 10 to 100 | Cc1cc(=O)n2cc(-c3ccc(Cl)cc3)nc2n1C(C)c1ccccc1 (stereo not shown) [Compound 54]
69 | 10 to 100 | Cc1cc(=O)n2cc(-c3ccc(Cl)cc3)nc2n1CCCC(F)(F)F [Compound 59]
70 | 100 to 1000 | CCN(CC)CCn1c(C)cc(=O)n2cc(-c3ccc(Cl)cc3)nc12 [Compound 75]
71 | 10 to 100 | Cc1cc(=O)n2cc(-c3ccc(Cl)cc3)nc2n1CC(=O)OC(C)C [Compound 72]
72 | 10 to 100 | Cc1cc(=O)n2cc(-c3ccc(Cl)cc3)nc2n1CC(C)C [Compound 78]
73 | 100 to 1000 | Cc1cc(=O)n2cc(-c3ccc(Cl)cc3)nc2n1CCN(C)C [Compound 70]
74 | 10 to 100 | CCOC(=O)C(C)n1c(C)cc(=O)n2cc(-c3ccc(Cl)cc3)nc12 (stereo not shown) [Compound 80]
75 | 10 to 100 | Cc1cc(=O)n2cc(-c3ccc(Cl)cc3)nc2n1CC1CCCC1 [Compound 57]
76 | 10 to 100 | Cc1cc(=O)n2cc(-c3ccc(Cl)cc3)nc2n1Cc1ccccc1 [Compound 13]
77 | 10 to 100 | Cc1ccc(Cn2c(C)cc(=O)n3cc(-c4ccc(Cl)cc4)nc23)cc1 [Compound 67]
78 | < 10 | CCCC(Cn1c(C)cc(=O)n2cc(-c3ccc(Cl)cc3)nc12)OS(C)(=O)=O (stereo not shown) [Compound 84]
79 | 100 to 1000 | Cc1cc(=O)n2cc(-c3ccc(Cl)cc3)nc2n1CC(=O)C1CC1 [Compound 50]
80 | < 10 | Cc1cc(=O)n2cc(-c3ccc(Cl)cc3)nc2n1Cc1ccc(OCCN2CCCC2)cc1 [Compound 85]
81 | 10 to 100 | CCOCCn1c(C)cc(=O)n2cc(-c3ccc(Cl)cc3)nc12 [Compound 26]
82 | 10 to 100 | Cc1cc(=O)n2cc(-c3ccc(Cl)cc3)nc2n1CC1CCC1 [Compound 77]
